PubChem BioAssay AID2060325 (Molecular Pharmacology Branch, DTP, NCI, 2025)
pIC50: −log10 of the molar value.

Tested on: SK-OV-3 multi-cell spheroids, viability
Assay: Anticancer human tumor SK-OV-3 cell line growth inhibition [IpAb];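 as to viability, T/C: viability read after seven days of drug exposure; percent of DMSO vehicle control luminescence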
Conditions: for pIC50: curve of first compound; for viability, T/C: stronger effect = lower value
Method in brief: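 Multi-cell spheroids of 60% tumour cells, 25% HUVEC and 15% MSC in ultra-low-attachment U-bottom wells, treated with agents combined with ipatasertib or abemaciclib. Half-log ranges top out near clinical Cmax, or 10 microM when Cmax is unknown.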

[1] = second compound 0.1 µM, first compound 0.00949 µM
[2] = second compound 0.1 µM, first compound 0.03 µM
[3] = second compound 0.1 µM, first compound 0.0949 µM
[4] = second compound 0.1 µM, first compound 0.3 µM
[5] = second compound 0.316 µM, first compound 0.00949 µM
[6] = second compound 0.316 µM, first compound 0.03 µM
[7] = second compound 0.316 µM, first compound 0.0949 µM
[8] = second compound 0.316 µM, first compound 0.3 µM
[9] = second compound 1 µM, first compound 0.00949 µM
[10] = second compound 1 µM, first compound 0.03 µM
[11] = second compound 1 µM, first compound 0.0949 µM
[12] = second compound 1 µM, first compound 0.3 µM
[13] = second compound 3.16 µM, first compound 0.00949 µM
[14] = second compound 3.16 µM, first compound 0.03 µM
[15] = second compound 3.16 µM, first compound 0.0949 µM
[16] = second compound 3.16 µM, first compound 0.3 µM
[17] = second compound 10 µM, first compound 0.00949 µM
[18] = second compound 10 µM, first compound 0.03 µM
[19] = second compound 10 µM, first compound 0.0949 µM
[20] = second compound 10 µM, first compound 0.3 µM

## CC(=O)c1c(C)c2cnc(Nc3ccc(N4CCNCC4)cn3)nc2n(C2CCCC2)c1=O + CC(C)NCC(C(=O)N1CCN(c2ncnc3c2C(C)CC3O)CC1)c1ccc(Cl)cc1
Second compound 0.1 µM
  pIC50: 8.01
Second compound 0.316 µM
  pIC50: > 9.02
Second compound 1 µM
  pIC50: > 9.02
Second compound 3.16 µM
  pIC50: > 9.02
Second compound 10 µM
  pIC50: > 9.02
Second compound 0.1 µM, first compound 0.000949 µM
  viability, T/C: 70.5%
Second compound 0.1 µM, first compound 0.003 µM
  viability, T/C: 62.3%
[1]
  viability, T/C: 50.6%
[2]
  viability, T/C: 40.2%
[3]
  viability, T/C: 35.8%
[4]
  viability, T/C: 34.2%
Second compound 0.316 µM, first compound 0.000949 µM
  viability, T/C: 36.3%
Second compound 0.316 µM, first compound 0.003 µM
  viability, T/C: 32.9%
[5]
  viability, T/C: 28%
[6]
  viability, T/C: 25.6%
[7]
  viability, T/C: 23.9%
[8]
  viability, T/C: 26.2%
Second compound 1 µM, first compound 0.000949 µM
  viability, T/C: 20.3%
Second compound 1 µM, first compound 0.003 µM
  viability, T/C: 18.3%
[9]
  viability, T/C: 17.6%
[10]
  viability, T/C: 14.7%
[11]
  viability, T/C: 15.9%
[12]
  viability, T/C: 18.5%
Second compound 3.16 µM, first compound 0.000949 µM
  viability, T/C: 16.5%
Second compound 3.16 µM, first compound 0.003 µM
  viability, T/C: 14.7%
[13]
  viability, T/C: 14.1%
[14]
  viability, T/C: 15.6%
[15]
  viability, T/C: 13.4%
[16]
  viability, T/C: 13.5%
Second compound 10 µM, first compound 0.000949 µM
  viability, T/C: 9.94%
Second compound 10 µM, first compound 0.003 µM
  viability, T/C: 9.77%
[17]
  viability, T/C: 8.83%
[18]
  viability, T/C: 8.26%
[19]
  viability, T/C: 10.6%
[20]
  viability, T/C: 10.5%

## CC(C)(C)c1cnc(CSc2cnc(NC(=O)C3CCNCC3)s2)o1 + CC(C)NCC(C(=O)N1CCN(c2ncnc3c2C(C)CC3O)CC1)c1ccc(Cl)cc1
Second compound 0.1 µM
  pIC50: 6.77
Second compound 0.316 µM
  pIC50: 6.93
Second compound 1 µM
  pIC50: > 8.02
Second compound 3.16 µM
  pIC50: > 8.02
Second compound 10 µM
  pIC50: > 8.02
[1]
  viability, T/C: 74.8%
[2]
  viability, T/C: 92%
[3]
  viability, T/C: 89.1%
[4]
  viability, T/C: 14.5%
Second compound 0.1 µM, first compound 0.949 µM
  viability, T/C: 0.65%
Second compound 0.1 µM, first compound 3 µM
  viability, T/C: 0.75%
[5]
  viability, T/C: 49.5%
[6]
  viability, T/C: 50.8%
[7]
  viability, T/C: 73.7%
[8]
  viability, T/C: 17.3%
Second compound 0.316 µM, first compound 0.949 µM
  viability, T/C: 0.41%
Second compound 0.316 µM, first compound 3 µM
  viability, T/C: 0.65%
[9]
  viability, T/C: 22.3%
[10]
  viability, T/C: 30.2%
[11]
  viability, T/C: 41.9%
[12]
  viability, T/C: 11.7%
Second compound 1 µM, first compound 0.949 µM
  viability, T/C: 0.3%
Second compound 1 µM, first compound 3 µM
  viability, T/C: 0.62%
[13]
  viability, T/C: 18%
[14]
  viability, T/C: 22.6%
[15]
  viability, T/C: 28.4%
[16]
  viability, T/C: 9.86%
Second compound 3.16 µM, first compound 0.949 µM
  viability, T/C: 0.58%
Second compound 3.16 µM, first compound 3 µM
  viability, T/C: 0.66%
[17]
  viability, T/C: 11.3%
[18]
  viability, T/C: 11.4%
[19]
  viability, T/C: 14.2%
[20]
  viability, T/C: 2.96%
Second compound 10 µM, first compound 0.949 µM
  viability, T/C: 0.36%
Second compound 10 µM, first compound 3 µM
  viability, T/C: 0.65%
